Experimental data as given in patent US20230321123A1, “INHIBITORS OF PSEUDOMONAS AERUGINOSA VIRULENCE FACTOR LasB” (Helmholtz-Zentrum Für Infektionsforschung GmbH, priority 2020, published 2023).
Like-named read-outs stand apart in the source and are kept apart here.

Molecular target: LasB (Pseudomonas aeruginosa, UniProt Q02RJ6)
Test: biochemical
Set-up: species or system P. aeruginosa

LasB, sequence (Q02RJ6 198-498): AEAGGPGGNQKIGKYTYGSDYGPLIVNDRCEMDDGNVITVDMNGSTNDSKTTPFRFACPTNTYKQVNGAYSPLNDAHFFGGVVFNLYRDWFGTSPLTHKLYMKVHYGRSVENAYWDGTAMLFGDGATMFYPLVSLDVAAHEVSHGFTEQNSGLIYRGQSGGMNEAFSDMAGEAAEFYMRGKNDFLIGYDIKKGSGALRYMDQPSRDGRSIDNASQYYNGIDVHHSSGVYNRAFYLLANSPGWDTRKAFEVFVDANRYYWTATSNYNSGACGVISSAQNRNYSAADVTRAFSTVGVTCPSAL

Compound	IC50 (IC50 against LasB)	other results
CC(C)CC(C(=O)N[C@H]1CCCN(Cc2ccc(Cl)cc2)C1)P(=O)(O)O (mixture of isomers) [Example 147, (1-(((S)-1-(4-Chlorobenzyl)piperidin-3-yl)amino)-4-methyl-1-oxopentan-2-yl)phosphonic acid]	5180 ± 530 nM	
CC(C)CC(C(=O)N[C@H](c1ncc(-c2ccc(Cl)c(Cl)c2)[nH]1)C(C)C)P(=O)(O)O (mixture of isomers) [Example 171, (1-(((S)-1-(5-(3,4-dichlorophenyl)-1H-imidazol-2-yl)-2-methylpropyl)amino)-4-methyl-1-oxopentan-2-yl)phosphonic acid]		IC50 (IC50 against LasB (Table 16), heteropentacycles and benzannulated heteropentacycles): 6000 ± 200 nM
O=C(Nc1ccccc1)C(S)Cc1ccccc1 (single isomer, unassigned) [Example 1 E1, 2-Mercapto-N,3-diphenylpropanamide]	4800 ± 700 nM	
O=C(Nc1ccccc1)C(S)Cc1ccccc1 (single isomer, unassigned) [Example 1 E2, 2-Mercapto-N,3-diphenylpropanamide]	1000 ± 100 nM	
Cc1ccccc1NC(=O)C(S)Cc1ccccc1 (stereo not shown) [Example 6]		IC50 (read-out: IC50 against LasB): 2400 ± 1000 nM
Cc1cccc(NC(=O)C(S)Cc2ccccc2)c1 (stereo not shown) [Example 7]	980 ± 430 nM	
O=C(Nc1ccc([N+](=O)[O-])cc1)C(S)Cc1ccccc1 (stereo not shown) [Example 9]	970 ± 100 nM	
O=C(Nc1ccccc1)C(S)Cc1ccc(O)cc1 (stereo not shown) [Example 11]	7300 ± 500 nM	
O=C(Nc1ccccc1)C(S)Cc1ccc(O)c([N+](=O)[O-])c1 (stereo not shown) [Example 12]		IC50 (read-out: IC50 against LasB): 2500 ± 100 nM
Cc1ccc(CC(S)C(=O)Nc2ccccc2)cc1 (stereo not shown) [Example 13]		IC50 (read-out: IC50 against LasB): 2800 ± 300 nM
CC(S)C(=O)Nc1ccc(Cl)c(Cl)c1 (stereo not shown) [Example 15]	4500 ± 700 nM	
COc1ccc(NC(=O)C(C)S)cc1 (stereo not shown) [Example 16]	45000 ± 1000 nM	
CC(=O)c1ccc(NC(=O)C(C)S)cc1 (stereo not shown) [Example 17]	89000 ± 9000 nM	
CCC(S)C(=O)Nc1ccc(Cl)c(Cl)c1 (stereo not shown) [Example 18]	2400 ± 400 nM	
CCC(S)C(=O)Nc1ccc(OC)cc1 (stereo not shown) [Example 19]	4200 ± 600 nM	
CCC(S)C(=O)Nc1ccc(C(C)=O)cc1 (stereo not shown) [Example 20]	10000 ± 2000 nM	
CC(C)C(S)C(=O)Nc1ccc(Cl)c(Cl)c1 (stereo not shown) [Example 21]	2500 ± 300 nM	
COc1ccc(NC(=O)C(S)C(C)C)cc1 (stereo not shown) [Example 22]	16000 ± 1000 nM	
CC(=O)c1ccc(NC(=O)C(S)C(C)C)cc1 (stereo not shown) [Example 23]	22000 nM	
CCCC(S)C(=O)Nc1ccccc1 (stereo not shown) [Example 24]	4800 ± 400 nM	
CCCC(S)C(=O)Nc1ccc(C)cc1 (stereo not shown) [Example 25]	2000 ± 200 nM	
CCCC(S)C(=O)Nc1ccc(Cl)c(Cl)c1 (stereo not shown) [Example 26]	4000 ± 600 nM	
CCCC(S)C(=O)Nc1ccc(OC)cc1 (stereo not shown) [Example 27]	2400 ± 600 nM	

Compound	IC50 (IC50 against LasB)	other results
CCCC(S)C(=O)Nc1ccc(C(C)=O)cc1 (stereo not shown) [Example 28]	2600 ± 500 nM	
CCCCC(S)C(=O)Nc1ccc(Cl)c(Cl)c1 (stereo not shown) [Example 29]	6800 ± 1100 nM	
CCCCC(S)C(=O)Nc1ccc(OC)cc1 (stereo not shown) [Example 30]	2800 ± 300 nM	
CC(C)CC(S)C(=O)Nc1ccc(Cl)c(Cl)c1 (stereo not shown) [Example 31]	2600 ± 200 nM	
COc1ccccc1NC(=O)C(S)CC(C)C (stereo not shown) [Example 32]	700 ± 40 nM	
COc1cccc(NC(=O)C(S)CC(C)C)c1 (stereo not shown) [Example 33]	560 ± 30 nM	
COc1ccc(NC(=O)C(S)CC(C)C)cc1 (stereo not shown) [Example 34]	360 ± 110 nM	
CC(C)CC(S)C(=O)Nc1ccc(Cl)cc1 (stereo not shown) [Example 38]	840 ± 240 nM	
CC(=O)c1ccc(NC(=O)C(S)CC(C)C)cc1 (stereo not shown) [Example 39]	690 ± 340 nM	
CC(C)CC(S)C(=O)Nc1ccccc1O (stereo not shown) [Example 40]	1400 ± 200 nM	
CCC(C)C(S)C(=O)Nc1ccc(Cl)c(Cl)c1 (stereo not shown) [Example 43]	7500 ± 200 nM	
CCC(C)C(S)C(=O)Nc1ccc(OC)cc1 (stereo not shown) [Example 44]	17000 ± 2000 nM	
O=C(Nc1ccc(Cl)c(Cl)c1)C(S)CC1CC1 (stereo not shown) [Example 45]		IC50 (read-out: IC50 against LasB): 6300 ± 1200 nM
COc1ccc(NC(=O)C(S)CC2CC2)cc1 (stereo not shown) [Example 46]	3900 ± 600 nM	
O=C(Nc1ccc(Cl)c(Cl)c1)C(S)CC1CCCCC1 (stereo not shown) [Example 47]		IC50 (read-out: IC50 against LasB): 12000 ± 3000 nM
COc1ccc(NC(=O)C(S)CC2CCCCC2)cc1 (stereo not shown) [Example 48]	2600 ± 1200 nM	
COCC(S)C(=O)Nc1ccc(Cl)c(Cl)c1 (stereo not shown) [Example 49]	2400 ± 600 nM	
COCC(S)C(=O)Nc1ccc(OC)cc1 (stereo not shown) [Example 50]	17000 ± 1000 nM	
O=C(O)CC(S)C(=O)Nc1ccc(Cl)c(Cl)c1 (stereo not shown) [Example 54]	3900 ± 400 nM	
O=C(Nc1nc2ccccc2s1)C(S)Cc1ccccc1 (stereo not shown) [Example 55]	750 ± 70 nM	
COc1ccc2nc(NC(=O)C(S)Cc3ccccc3)sc2c1 (stereo not shown) [Example 56]	950 ± 80 nM	
O=C(Nc1nc2ccc(Cl)cc2s1)C(S)Cc1ccccc1 (stereo not shown) [Example 57]		IC50 (read-out: IC50 against LasB): 2400 ± 200 nM
O=C(Nc1nccs1)C(S)Cc1ccccc1 (stereo not shown) [Example 58]		IC50 (read-out: IC50 against LasB): 1600 ± 100 nM
